Results reported in the NIST ThermoML archive (doi:10.1021/je7003929).

Assay: xn = mol fraction of the nth substance listed
Conditions: Liquid, Vibrating tube method

c1ccc2sccc2c1 [benzo[b]thiophene] + CCCCCC
Conditions	mass density [kg/m3]
352.41 K, 1015 kPa, x2 = 0.0629	1076.7
352.41 K, 2020 kPa, x2 = 0.0629	1077.4
352.41 K, 3016 kPa, x2 = 0.0629	1078.1
352.41 K, 4038 kPa, x2 = 0.0629	1078.8
352.41 K, 5000 kPa, x2 = 0.0629	1079.5
352.41 K, 6001 kPa, x2 = 0.0629	1080.4
352.41 K, 7017 kPa, x2 = 0.0629	1081.1
352.41 K, 8008 kPa, x2 = 0.0629	1082
352.41 K, 9017 kPa, x2 = 0.0629	1082.6
352.41 K, 10026 kPa, x2 = 0.0629	1083.4
352.41 K, 11018 kPa, x2 = 0.0629	1084.1
352.41 K, 12014 kPa, x2 = 0.0629	1084.7
352.41 K, 13014 kPa, x2 = 0.0629	1085.4
352.41 K, 14022 kPa, x2 = 0.0629	1086.2
352.41 K, 15028 kPa, x2 = 0.0629	1086.8
352.41 K, 16020 kPa, x2 = 0.0629	1087.6
352.41 K, 17023 kPa, x2 = 0.0629	1088.2
352.41 K, 18015 kPa, x2 = 0.0629	1088.8
352.41 K, 19016 kPa, x2 = 0.0629	1089.5
352.41 K, 20019 kPa, x2 = 0.0629	1090.2
352.53 K, 1025 kPa, x2 = 0.9432	630.4
352.53 K, 1026 kPa, x2 = 0.7491	725.1
352.53 K, 2023 kPa, x2 = 0.9432	632.1
352.53 K, 2026 kPa, x2 = 0.7491	726.5
352.53 K, 3024 kPa, x2 = 0.7491	727.8
352.53 K, 3030 kPa, x2 = 0.9432	633.8
352.53 K, 4018 kPa, x2 = 0.9432	635.4
352.53 K, 4034 kPa, x2 = 0.7491	729.2
352.53 K, 5014 kPa, x2 = 0.7491	730.5
352.53 K, 5021 kPa, x2 = 0.9432	637
352.53 K, 6018 kPa, x2 = 0.9432	638.5
352.53 K, 6040 kPa, x2 = 0.7491	731.8
352.53 K, 7010 kPa, x2 = 0.9432	639.9
352.53 K, 7028 kPa, x2 = 0.7491	733
352.53 K, 8017 kPa, x2 = 0.7491	734.3
352.53 K, 8018 kPa, x2 = 0.9432	641.4
352.53 K, 9003 kPa, x2 = 0.7491	735.5
352.53 K, 9044 kPa, x2 = 0.9432	642.8
352.53 K, 10008 kPa, x2 = 0.7491	736.7
352.53 K, 10011 kPa, x2 = 0.9432	644.2
352.53 K, 11016 kPa, x2 = 0.7491	737.9
352.53 K, 11022 kPa, x2 = 0.9432	645.5
352.53 K, 12002 kPa, x2 = 0.7491	739
352.53 K, 12013 kPa, x2 = 0.9432	646.9
352.53 K, 13005 kPa, x2 = 0.9432	648.2
352.53 K, 13020 kPa, x2 = 0.7491	740.2
352.53 K, 14000 kPa, x2 = 0.9432	649.5
352.53 K, 14016 kPa, x2 = 0.7491	741.3
352.53 K, 15021 kPa, x2 = 0.9432	650.8
352.53 K, 15037 kPa, x2 = 0.7491	742.5
352.53 K, 16022 kPa, x2 = 0.9432	652
352.53 K, 16035 kPa, x2 = 0.7491	743.6
352.53 K, 17001 kPa, x2 = 0.9432	653.2
352.53 K, 17020 kPa, x2 = 0.7491	744.6
352.53 K, 18013 kPa, x2 = 0.9432	654.4
352.53 K, 18020 kPa, x2 = 0.7491	745.7
352.53 K, 19007 kPa, x2 = 0.9432	655.6
352.53 K, 19008 kPa, x2 = 0.7491	746.7
352.53 K, 20019 kPa, x2 = 0.7491	747.8
352.53 K, 20039 kPa, x2 = 0.9432	656.7
352.63 K, 1037 kPa, x2 = 0.4495	874.2
352.63 K, 2029 kPa, x2 = 0.4495	875.3
352.63 K, 3026 kPa, x2 = 0.4495	876.4
352.63 K, 4032 kPa, x2 = 0.4495	877.5
352.63 K, 5015 kPa, x2 = 0.4495	878.5
352.63 K, 6024 kPa, x2 = 0.4495	879.5
352.63 K, 7028 kPa, x2 = 0.4495	880.5
352.63 K, 8017 kPa, x2 = 0.4495	881.5
352.63 K, 9003 kPa, x2 = 0.4495	882.5
352.63 K, 10022 kPa, x2 = 0.4495	883.5
352.63 K, 11024 kPa, x2 = 0.4495	884.5
352.63 K, 12013 kPa, x2 = 0.4495	885.4
352.63 K, 13038 kPa, x2 = 0.4495	886.4
352.63 K, 14000 kPa, x2 = 0.4495	887.3
352.63 K, 15021 kPa, x2 = 0.4495	888.2
352.63 K, 16012 kPa, x2 = 0.4495	889.1
352.63 K, 17010 kPa, x2 = 0.4495	890
352.63 K, 18015 kPa, x2 = 0.4495	890.9
352.63 K, 19022 kPa, x2 = 0.4495	891.8
352.63 K, 20005 kPa, x2 = 0.4495	892.7
362.31 K, 1028 kPa, x2 = 0.9432	620.3
362.31 K, 2031 kPa, x2 = 0.9432	622.2
362.31 K, 3031 kPa, x2 = 0.9432	624
362.31 K, 4012 kPa, x2 = 0.9432	625.7
362.31 K, 5026 kPa, x2 = 0.9432	627.4
362.31 K, 6013 kPa, x2 = 0.9432	629.1
362.31 K, 7022 kPa, x2 = 0.9432	630.7
362.31 K, 8014 kPa, x2 = 0.9432	632.3
362.31 K, 9000 kPa, x2 = 0.9432	633.7
362.31 K, 10011 kPa, x2 = 0.9432	635.3
362.31 K, 11007 kPa, x2 = 0.9432	636.7
362.31 K, 12007 kPa, x2 = 0.9432	638.2
362.31 K, 13008 kPa, x2 = 0.9432	639.6
362.31 K, 14024 kPa, x2 = 0.9432	640.9
362.31 K, 15002 kPa, x2 = 0.9432	642.3
362.31 K, 16016 kPa, x2 = 0.9432	643.6
362.31 K, 17000 kPa, x2 = 0.9432	644.9
362.31 K, 18008 kPa, x2 = 0.9432	646.3
362.31 K, 19018 kPa, x2 = 0.9432	647.5
362.31 K, 20028 kPa, x2 = 0.9432	648.8
362.33 K, 1020 kPa, x2 = 0.7491	715.3
362.33 K, 2034 kPa, x2 = 0.7491	716.8
362.33 K, 3013 kPa, x2 = 0.7491	718.3
362.33 K, 4007 kPa, x2 = 0.7491	719.7
362.33 K, 5015 kPa, x2 = 0.7491	721.2
362.33 K, 6018 kPa, x2 = 0.7491	722.5
362.33 K, 7015 kPa, x2 = 0.7491	723.9
362.33 K, 8017 kPa, x2 = 0.7491	725.2
362.33 K, 9024 kPa, x2 = 0.7491	726.5
362.33 K, 10010 kPa, x2 = 0.7491	727.8
362.33 K, 10996 kPa, x2 = 0.7491	729.1
362.33 K, 12027 kPa, x2 = 0.7491	730.4
362.33 K, 13022 kPa, x2 = 0.7491	731.6
362.33 K, 14016 kPa, x2 = 0.7491	732.8
362.33 K, 15023 kPa, x2 = 0.7491	734
362.33 K, 16012 kPa, x2 = 0.7491	735.1
362.33 K, 17011 kPa, x2 = 0.7491	736.3
362.33 K, 18012 kPa, x2 = 0.7491	737.4
362.33 K, 19030 kPa, x2 = 0.7491	738.6
362.33 K, 20017 kPa, x2 = 0.7491	739.7
362.5 K, 1028 kPa, x2 = 0.4495	864.8
362.5 K, 2025 kPa, x2 = 0.4495	866
362.5 K, 3020 kPa, x2 = 0.4495	867.1
362.5 K, 4000 kPa, x2 = 0.4495	868.2
362.5 K, 5045 kPa, x2 = 0.4495	869.3
362.5 K, 6017 kPa, x2 = 0.4495	870.4
362.5 K, 7018 kPa, x2 = 0.4495	871.5
362.5 K, 8013 kPa, x2 = 0.4495	872.5
362.5 K, 9024 kPa, x2 = 0.4495	873.6
362.5 K, 10011 kPa, x2 = 0.4495	874.6
362.5 K, 11008 kPa, x2 = 0.4495	875.6
362.5 K, 12025 kPa, x2 = 0.4495	876.6
362.5 K, 13004 kPa, x2 = 0.4495	877.6
362.5 K, 14014 kPa, x2 = 0.4495	878.6
362.5 K, 15011 kPa, x2 = 0.4495	879.6
362.5 K, 16027 kPa, x2 = 0.4495	880.6
362.5 K, 17017 kPa, x2 = 0.4495	881.5
362.5 K, 18030 kPa, x2 = 0.4495	882.5
362.5 K, 19022 kPa, x2 = 0.4495	883.4
362.5 K, 20002 kPa, x2 = 0.4495	884.3
